Source: ChEMBL document CHEMBL3817791, “Discovery of 4-(4-aminopyrazolo[1,5-a][1,3,5]triazin-8-yl)benzamides as novel, highly potent and selective, orally bioavailable inhibitors of Tyrosine Threonine Kinase, TTK” (Bioorg Med Chem Lett, 2016)

How the values were obtained:
[1] = Cmax in CD-1 nude mouse at 10 mg/ml, po; format: ADME, organism-based; design: dose 10 mg/ml, route oral; conditions: in vivo
[2] = Cmax in CD-1 nude mouse at 25 mg/ml, po; format: ADME, organism-based; design: dose 25 mg/ml, route oral; conditions: in vivo
[3] = Cmax in CD-1 nude mouse at 70 mg/ml, po; format: ADME, organism-based; design: dose 70 mg/ml, route oral; conditions: in vivo
[4] = Cmax in CD-1 nude mouse at 100 mg/ml, po; format: ADME, organism-based; design: dose 100 mg/ml, route oral; conditions: in vivo
[5] = biological target: T1, Dual specificity protein kinase TTK (Homo sapiens, UniProt P33981); experiment: Competitive inhibition of TTK (unknown origin) by double reciprocal plot analysis in presence of ATP
T1 sequence (P33981 whole entry): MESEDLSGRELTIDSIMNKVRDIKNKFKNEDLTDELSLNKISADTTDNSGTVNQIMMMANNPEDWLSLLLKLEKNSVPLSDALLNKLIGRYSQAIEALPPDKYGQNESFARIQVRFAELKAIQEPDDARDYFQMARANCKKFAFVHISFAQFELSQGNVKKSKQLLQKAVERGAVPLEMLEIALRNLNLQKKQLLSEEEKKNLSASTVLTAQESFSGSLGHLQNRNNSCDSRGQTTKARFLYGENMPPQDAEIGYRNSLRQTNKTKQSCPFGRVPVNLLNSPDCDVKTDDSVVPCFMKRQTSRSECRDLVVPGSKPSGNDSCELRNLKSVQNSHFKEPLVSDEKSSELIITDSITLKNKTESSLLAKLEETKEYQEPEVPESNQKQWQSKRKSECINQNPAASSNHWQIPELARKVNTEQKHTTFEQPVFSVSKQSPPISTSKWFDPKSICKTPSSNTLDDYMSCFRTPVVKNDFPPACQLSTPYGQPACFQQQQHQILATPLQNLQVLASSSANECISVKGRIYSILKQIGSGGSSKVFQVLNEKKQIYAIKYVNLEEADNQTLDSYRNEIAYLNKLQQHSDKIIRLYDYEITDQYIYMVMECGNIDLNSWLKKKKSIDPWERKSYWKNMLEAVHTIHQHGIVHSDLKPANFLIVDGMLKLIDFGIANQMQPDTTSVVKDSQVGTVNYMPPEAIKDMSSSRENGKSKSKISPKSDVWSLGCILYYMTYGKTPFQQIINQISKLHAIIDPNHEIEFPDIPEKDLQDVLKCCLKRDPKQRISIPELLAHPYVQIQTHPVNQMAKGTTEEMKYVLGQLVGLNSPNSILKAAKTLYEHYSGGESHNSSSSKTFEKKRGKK

[6] = biological target: Rho-associated protein kinase 2 (Homo sapiens) (UniProt O75116); experiment: Inhibition of recombinant human N-terminal His6-tagged ROCK2 (11 to 552 residues) expressed in baculovirus infected Sf21 cells at 1 uM by radiometric assay relative to control
Rho-associated protein kinase 2 (Homo sapiens), sequence (O75116 whole entry, looked up, the tested form may be a part): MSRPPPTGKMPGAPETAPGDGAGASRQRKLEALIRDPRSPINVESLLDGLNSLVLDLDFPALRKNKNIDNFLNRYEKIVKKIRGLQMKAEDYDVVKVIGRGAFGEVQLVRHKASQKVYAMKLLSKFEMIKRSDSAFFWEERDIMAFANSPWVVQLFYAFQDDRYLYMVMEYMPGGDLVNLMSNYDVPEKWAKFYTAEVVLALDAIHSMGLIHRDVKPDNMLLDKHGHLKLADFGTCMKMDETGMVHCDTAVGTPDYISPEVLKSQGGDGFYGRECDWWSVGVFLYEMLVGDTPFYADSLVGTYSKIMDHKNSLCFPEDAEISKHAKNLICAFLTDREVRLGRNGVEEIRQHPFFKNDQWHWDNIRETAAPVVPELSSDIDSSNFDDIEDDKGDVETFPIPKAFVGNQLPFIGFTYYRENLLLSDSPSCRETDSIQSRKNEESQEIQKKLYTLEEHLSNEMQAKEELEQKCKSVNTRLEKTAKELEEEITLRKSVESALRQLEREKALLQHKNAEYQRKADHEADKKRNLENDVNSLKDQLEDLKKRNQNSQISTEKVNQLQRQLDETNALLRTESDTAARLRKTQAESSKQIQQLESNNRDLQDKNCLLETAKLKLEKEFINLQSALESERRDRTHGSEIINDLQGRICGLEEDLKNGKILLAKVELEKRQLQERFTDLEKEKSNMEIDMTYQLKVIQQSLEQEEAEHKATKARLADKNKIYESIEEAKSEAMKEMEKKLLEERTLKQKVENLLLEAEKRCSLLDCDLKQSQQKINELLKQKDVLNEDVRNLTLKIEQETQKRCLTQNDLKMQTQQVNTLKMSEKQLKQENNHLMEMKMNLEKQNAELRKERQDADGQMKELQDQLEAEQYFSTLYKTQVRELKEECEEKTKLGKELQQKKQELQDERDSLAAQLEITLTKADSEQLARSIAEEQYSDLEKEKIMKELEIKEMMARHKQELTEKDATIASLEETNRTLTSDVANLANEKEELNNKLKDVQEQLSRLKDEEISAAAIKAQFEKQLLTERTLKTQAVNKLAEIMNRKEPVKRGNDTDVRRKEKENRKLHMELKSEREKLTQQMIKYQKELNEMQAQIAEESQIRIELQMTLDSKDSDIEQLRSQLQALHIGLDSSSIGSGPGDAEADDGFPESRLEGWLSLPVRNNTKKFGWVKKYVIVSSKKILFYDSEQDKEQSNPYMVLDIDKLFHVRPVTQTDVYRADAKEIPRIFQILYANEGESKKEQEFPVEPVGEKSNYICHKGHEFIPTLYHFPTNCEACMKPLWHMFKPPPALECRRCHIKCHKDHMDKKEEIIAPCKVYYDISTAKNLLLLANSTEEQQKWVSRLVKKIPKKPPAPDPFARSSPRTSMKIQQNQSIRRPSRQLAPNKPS

[7] = biological target: Aurora kinase B/Inner centromere protein (Homo sapiens, UniProt Q96GD4); experiment: Inhibition of recombinant human His-tagged Aurora B/full length recombinant human N-terminal GST-tagged INCENP (821-end residues) expressed in baculovirus infected Sf21 cells by radiometric assay
Aurora kinase B/Inner centromere protein, sequence (Q96GD4 whole entry): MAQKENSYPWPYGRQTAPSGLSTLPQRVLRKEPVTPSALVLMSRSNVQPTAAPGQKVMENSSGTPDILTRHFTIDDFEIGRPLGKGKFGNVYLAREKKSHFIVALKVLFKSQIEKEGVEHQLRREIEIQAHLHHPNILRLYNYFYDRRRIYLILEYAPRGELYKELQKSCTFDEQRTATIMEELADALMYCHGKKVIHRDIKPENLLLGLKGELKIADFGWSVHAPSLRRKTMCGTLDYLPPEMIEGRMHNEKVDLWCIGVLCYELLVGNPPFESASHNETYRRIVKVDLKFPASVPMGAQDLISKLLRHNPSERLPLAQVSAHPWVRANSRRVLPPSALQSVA
Aurora kinase B/Inner centromere protein, sequence (Q9NQS7 whole entry, further chain): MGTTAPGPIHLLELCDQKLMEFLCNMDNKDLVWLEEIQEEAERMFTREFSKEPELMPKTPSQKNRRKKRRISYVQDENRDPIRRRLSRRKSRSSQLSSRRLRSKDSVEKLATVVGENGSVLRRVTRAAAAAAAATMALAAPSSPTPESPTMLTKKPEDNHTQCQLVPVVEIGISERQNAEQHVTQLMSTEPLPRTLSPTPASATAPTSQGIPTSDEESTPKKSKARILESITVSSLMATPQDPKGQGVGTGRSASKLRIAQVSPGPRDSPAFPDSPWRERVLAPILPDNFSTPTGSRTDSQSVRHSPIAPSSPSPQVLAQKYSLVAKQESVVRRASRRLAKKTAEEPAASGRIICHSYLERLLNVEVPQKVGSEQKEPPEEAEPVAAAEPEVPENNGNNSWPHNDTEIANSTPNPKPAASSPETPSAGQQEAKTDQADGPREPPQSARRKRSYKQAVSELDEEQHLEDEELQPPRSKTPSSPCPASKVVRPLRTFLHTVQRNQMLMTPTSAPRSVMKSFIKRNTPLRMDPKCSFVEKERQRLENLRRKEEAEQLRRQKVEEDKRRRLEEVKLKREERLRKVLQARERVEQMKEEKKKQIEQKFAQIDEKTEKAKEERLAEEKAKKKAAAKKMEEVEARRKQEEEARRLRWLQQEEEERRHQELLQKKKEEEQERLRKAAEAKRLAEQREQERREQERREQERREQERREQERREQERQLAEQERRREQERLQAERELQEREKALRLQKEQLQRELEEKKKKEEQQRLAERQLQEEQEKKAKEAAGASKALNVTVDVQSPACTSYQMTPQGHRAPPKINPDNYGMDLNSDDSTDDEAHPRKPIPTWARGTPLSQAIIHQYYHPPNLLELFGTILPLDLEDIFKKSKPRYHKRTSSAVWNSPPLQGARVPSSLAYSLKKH

MDA-MB-231 = experiment: Antiproliferative activity against human MDA-MB-231 cells; format: functional
[8] = Antiproliferative activity against human HCT116 cells; format: functional; conditions: HCT-116
[9] = Antiproliferative activity against human OVCAR3 cells; format: functional; conditions: OVCAR-3
Cytochrome P450 3A4 = Cytochrome P450 3A4 (Homo sapiens, UniProt P08684); experiment: Inhibition of CYP3A4 (unknown origin); format: ADME
Cytochrome P450 3A4, sequence (P08684 whole entry): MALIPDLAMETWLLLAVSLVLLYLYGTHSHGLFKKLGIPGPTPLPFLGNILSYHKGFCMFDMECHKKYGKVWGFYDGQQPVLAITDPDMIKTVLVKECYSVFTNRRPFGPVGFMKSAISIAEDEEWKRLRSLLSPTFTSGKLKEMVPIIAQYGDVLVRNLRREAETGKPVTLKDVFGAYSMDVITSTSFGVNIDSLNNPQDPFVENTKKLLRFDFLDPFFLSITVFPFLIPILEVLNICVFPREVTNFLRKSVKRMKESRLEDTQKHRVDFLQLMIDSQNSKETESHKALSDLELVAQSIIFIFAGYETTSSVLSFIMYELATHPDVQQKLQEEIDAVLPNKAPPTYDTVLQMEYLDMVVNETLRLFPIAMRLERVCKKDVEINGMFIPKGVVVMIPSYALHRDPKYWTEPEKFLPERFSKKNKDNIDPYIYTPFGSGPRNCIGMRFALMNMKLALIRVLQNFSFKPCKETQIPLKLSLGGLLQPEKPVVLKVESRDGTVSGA

[10] = Half life in mouse microsomes; format: ADME, Microsome
[11] = Half life in rat microsomes; format: ADME, Microsome
[12] = Half life in human microsomes; format: ADME, Microsome
HT-29 = experiment: Antiproliferative activity against human HT-29 cells; format: functional
MDA-MB-468 = experiment: Antiproliferative activity against human MDA-MB-468 cells; format: functional
[13] = Oral bioavailability in Sprague-Dawley rat; format: ADME, organism-based; conditions: in vivo
[14] = Cmax in Sprague-Dawley rat at 1 mg/ml, iv; format: ADME, organism-based; design: dose 1 mg/ml, route intravenous; conditions: in vivo
[15] = AUC (0 to infinity) in Sprague-Dawley rat at 1 mg/ml, iv; format: ADME, organism-based; design: dose 1 mg/ml, time infinity, route intravenous; conditions: in vivo
[16] = Clearance in Sprague-Dawley rat at 1 mg/ml, iv; format: ADME, organism-based; conditions: in vivo
[17] = Half life in Sprague-Dawley rat at 1 mg/ml, iv; format: ADME, organism-based; conditions: in vivo
[18] = Volume of distribution at steady state in Sprague-Dawley rat at 1 mg/ml, iv; format: ADME, organism-based; conditions: in vivo, read-out: Vdss
[19] = Cmax in Sprague-Dawley rat at 5 mg/ml, iv; format: ADME, organism-based; design: dose 5 mg/ml, route intravenous; conditions: in vivo
[20] = AUC (0 to infinity) in Sprague-Dawley rat at 5 mg/ml, iv; format: ADME, organism-based; design: dose 5 mg/ml, route intravenous, time infinity; conditions: in vivo
[21] = Half life in Sprague-Dawley rat at 5 mg/ml, iv; format: ADME, organism-based; conditions: in vivo
[22] = Protein binding in mouse plasma; format: ADME, cell-free; conditions: read-out: PPB (converted)
[23] = Protein binding in human plasma; format: ADME, cell-free; conditions: read-out: PPB (converted)
[24] = AUC (0 to last) in CD-1 nude mouse at 10 mg/ml, po; format: ADME, organism-based; design: dose 10 mg/ml, route oral, time 0 - last; conditions: in vivo
[25] = AUC (0 to last) in CD-1 nude mouse at 25 mg/ml, po; format: ADME, organism-based; design: dose 25 mg/ml, time 0 - last, route oral; conditions: in vivo
[26] = AUC (0 to last) in CD-1 nude mouse at 55 mg/ml, po; format: ADME, organism-based; design: dose 55 mg/ml, route oral, time 0 - last; conditions: in vivo
[27] = AUC (0 to last) in CD-1 nude mouse at 70 mg/ml, po; format: ADME, organism-based; design: dose 70 mg/ml, time 0 - last, route oral; conditions: in vivo
[28] = AUC (0 to last) in CD-1 nude mouse at 100 mg/ml, po; format: ADME, organism-based; design: dose 100 mg/ml, route oral, time 0 - last; conditions: in vivo

Cc1cc(-c2cnn3c(NCC4CCOCC4)nc(Oc4ccccc4)nc23)ccc1C(=O)NC1CC1
Cmax [1]: 890 ng/mL | Cmax [2]: 3200 ng/mL | Cmax [3]: 7700 ng/mL | Cmax [4]: 2900 ng/mL | Ki [5]: 0.00077 µM | inhibition [6]: 0% | IC50 [7]: > 50 µM | GI50 (MDA-MB-231): 0.032 µM | GI50 [8]: 0.013 µM | GI50 [9]: 0.19 µM | IC50 (Cytochrome P450 3A4): 0.8 µM | half-life [10]: 0.767 h | half-life [11]: > 1 h | half-life [12]: > 1 h | GI50 (HT-29): 0.015 µM | GI50 (MDA-MB-468): 0.16 µM | bioavailability [13]: 97% | Cmax [14]: 411 ng/mL | AUC(0-inf) [15]: 871 ng·h/mL | clearance [16]: 19 mL/min/kg | half-life [17]: 1.53 h | Vd [18]: 2.8 L | Cmax [19]: 841 ng/mL | AUC(0-inf) [20]: 4230 ng·h/mL | half-life [21]: 1.7 h | fraction unbound [22]: 0.016 | fraction unbound [23]: 0.028 | AUC(0-t) [24]: 1530 ng·h/mL | AUC(0-t) [25]: 19100 ng·h/mL | AUC(0-t) [26]: 38100 ng·h/mL | AUC(0-t) [27]: 53000 ng·h/mL | AUC(0-t) [28]: 25000 ng·h/mL
